These results are taken from ChEMBL document CHEMBL1201862, “PubChem BioAssay data set” (2004).

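All cell lines were grown in 96-well plates and treated with compound for 48 hours. GI50 marks 50% less growth.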 Activity calls are given as the source filed them. Cut-off read from the data, not from the text of the source: active = GI50 up to about 1.1 µM and inactive = higher. Where only a bound is given, the exact number is not on record here.

Common to all, as to assay: growth of human tumour cells (NCI), 48 h
Experiment [1] has as its system A498.
Experiment [2] deals with EKVX.
In experiment [3] the test system is HL-60.
Experiment [4] deals with HOP-62.
Experiment [5] deals with KM12.
In experiment [6] the test system is M14.
Experiment [7] deals with MDA-MB-231.
Experiment [8] concerns MDA-MB-435.
Experiment [9] deals with MOLT-4.
The test system of experiment [10] is OVCAR-3.
Experiment [11] deals with OVCAR-4.
Experiment [12] relates to OVCAR-8.
Experiment [13] deals with SF-295.
The subject of experiment [14] is SK-MEL-5.
Experiment [15] concerns SK-OV-3.
Experiment [16] has as its system T47D.
Experiment [17] relates to UACC-257.
Experiment [18] concerns UACC-62.
Experiment [19] deals with HOP-92.

Take `Cc1cc(C)c2c(-c3ccccc3)cc(=O)[nH]c2c1`: the GI50 in experiment [1], in [2], in [3], in experiment [4], in experiment [5] and in experiment [6] was > 100 µM (inactive) in each case. Moreover, the GI50 in experiment [7], in [8], in [9], in [10], in experiment [11] and in [12] was > 100 µM (inactive) throughout. For the same compound, the GI50 in experiment [13], in experiment [14], in [15], in [16], in [17] and in [18] was > 100 µM (inactive) each time.
For the compound `C[C@H](N)C(=O)Nc1ccc(-c2nc3ccccc3s2)cc1`, the GI50 in experiment [1] is 30.1 µM (inactive); in [2], 11.8 µM (inactive); in experiment [4], 26.5 µM (inactive); in experiment [19] it was 26.4 µM (inactive); in [5], 16.3 µM (inactive); in [6], 10.9 µM (inactive). Besides, the GI50 in experiment [7] is 18.4 µM (inactive); in experiment [8], 16.9 µM (inactive); in experiment [9], 16.3 µM (inactive); in experiment [10], 18.3 µM (inactive); in [11], 16.4 µM (inactive); in experiment [12], 25.6 µM (inactive). The GI50 in experiment [13] was 18.7 µM (inactive); in experiment [14], 20.1 µM (inactive); in experiment [15], 22.5 µM (inactive); in experiment [16], 17.5 µM (inactive); in experiment [17], 39.1 µM (inactive); in experiment [18], 18.5 µM (inactive).
Consider `CCCCCCCc1ccc(-c2nnc(/N=N/c3ccc(OCCCCC)cc3)s2)s1`, for which the GI50 in experiment [1], in [2], in experiment [3], in [4], in experiment [5] and in [6] was > 100 µM (inactive) each time. For the same compound, the GI50 in experiment [7], in experiment [8], in [9], in experiment [10], in experiment [11] and in [13] was > 100 µM (inactive) throughout. Besides, the GI50 in experiment [14], in experiment [15], in [16], in experiment [17] and in experiment [18] was > 100 µM (inactive) in each case.
Turning to `Cc1nc2c(cc1OCc1ccccc1)C(=O)C1=C(C2=O)C2OC(=O)CC2OC1(C)C` (configuration not stated), the GI50 in experiment [1] is 1.6 µM (inactive); in experiment [2] it was 1.55 µM (inactive); in experiment [3] it was 0.0697 µM (active); in experiment [4], 1.52 µM (inactive); in experiment [19], 0.375 µM (active); in experiment [5], 0.531 µM (active). The GI50 is 0.536 µM (active) in experiment [6]; 0.43 µM (active) in experiment [7]; 0.55 µM (active) in experiment [8]; 0.358 µM (active) in experiment [9]; 0.498 µM (active) in [11]; 2.72 µM (inactive) in experiment [12]. Moreover, the GI50 is 1.18 µM (inactive) in experiment [14], 0.288 µM (active) in experiment [16], 0.671 µM (active) in [17] and 0.174 µM (active) in experiment [18].
Take `c1ccc(COc2ncccc2C2SCCCS2)cc1`: the GI50 in experiment [1] was > 100 µM (inactive); in [2], > 100 µM (inactive); in [3] it was > 10 µM (inactive); in experiment [4] it was > 100 µM (inactive); in experiment [19] it was > 100 µM (inactive); in [5], > 100 µM (inactive). Besides, the GI50 in experiment [6], in [7], in experiment [8], in experiment [10], in experiment [11] and in experiment [12] was > 100 µM (inactive) in each case. The GI50 in experiment [13] was > 100 µM (inactive); in experiment [14], > 100 µM (inactive); in [16], 32.9 µM (inactive); in experiment [17], > 100 µM (inactive); in experiment [18], > 100 µM (inactive).
Turning to `CNc1cc2oc(=O)cc(C)c2cc1C`, the GI50 was 43.2 µM (inactive) in experiment [1]; 59.6 µM (inactive) in experiment [2]; 25.4 µM (inactive) in experiment [3]; > 100 µM (inactive) in experiment [4]; 89.3 µM (inactive) in [19]; > 100 µM (inactive) in experiment [6]. Besides, the GI50 was > 100 µM (inactive) in experiment [7]; 86.3 µM (inactive) in experiment [8]; > 100 µM (inactive) in experiment [9]; > 100 µM (inactive) in [10]; > 100 µM (inactive) in experiment [11]; > 100 µM (inactive) in experiment [12]. For the same compound, the GI50 is > 100 µM (inactive) in [13]; 30.1 µM (inactive) in [14]; > 100 µM (inactive) in [16]; > 100 µM (inactive) in experiment [17]; 72.6 µM (inactive) in [18].
With `CC12CC3c4ccccc4CN1C3(c1ccccc1)OC2=O` (configuration not stated), the GI50 in [1], in [2], in [3], in [4], in [5] and in [6] was > 100 µM (inactive) each time. In addition, the GI50 in experiment [7], in experiment [8], in experiment [9], in experiment [11], in experiment [12] and in experiment [13] was > 100 µM (inactive) in each case. The GI50 in experiment [14], in experiment [15], in experiment [16], in [17] and in experiment [18] was > 100 µM (inactive) each time.
With `COc1ccc2c(ccc3c(COC(=O)NC(C)C)c(COC(=O)NC(C)C)n(C)c32)c1`, the GI50 in [1] was 7.33 µM (inactive); in experiment [2], 16.4 µM (inactive); in [4], 4.99 µM (inactive); in experiment [19] it was 11.2 µM (inactive); in experiment [5], 11.5 µM (inactive); in experiment [6] it was 9.06 µM (inactive). Further, the GI50 in experiment [7] was 16.3 µM (inactive); in [8], 7.74 µM (inactive); in experiment [9], 3.34 µM (inactive); in experiment [10] it was 12.7 µM (inactive); in [11], 12.4 µM (inactive); in [12] it was 5.9 µM (inactive). Also, the GI50 in [13] was 8.79 µM (inactive); in experiment [14], 13.2 µM (inactive); in experiment [15], 16.7 µM (inactive); in [16], 7.52 µM (inactive); in [17], 12.7 µM (inactive); in experiment [18], 4.42 µM (inactive).
As to `C[As+](C)(c1ccc(Br)c([N+](=O)[O-])c1)c1ccc(Br)c([N+](=O)[O-])c1`, the GI50 in experiment [1], in [2], in experiment [4], in [19], in experiment [5] and in experiment [6] was > 100 µM (inactive) each time. The GI50 in [7], in experiment [8], in experiment [9], in experiment [10], in [11] and in experiment [12] was > 100 µM (inactive) in each case. Moreover, the GI50 in experiment [13] was > 100 µM (inactive); in [14], 9.12 µM (inactive); in [15], > 100 µM (inactive); in [16] it was > 100 µM (inactive); in [17], > 100 µM (inactive); in [18], > 100 µM (inactive).
Consider `CCOC(=O)c1c(N2CCOCC2)[nH]c(=O)c(C(c2ccc(Cl)c([N+](=O)[O-])c2)c2c(O)c(C(=O)OCC)c(N3CCOCC3)[nH]c2=O)c1O`, for which the GI50 in experiment [1] was > 100 µM (inactive); in experiment [2], > 100 µM (inactive); in [4], 34.9 µM (inactive); in [19] it was 23.9 µM (inactive); in experiment [5] it was > 100 µM (inactive); in [6], 20.7 µM (inactive). Besides, the GI50 is 15.2 µM (inactive) in experiment [7]; 30.6 µM (inactive) in experiment [8]; 25.2 µM (inactive) in experiment [9]; 17.2 µM (inactive) in [10]; 42.8 µM (inactive) in experiment [11]; 18.4 µM (inactive) in [12]. Besides, the GI50 in experiment [13] was > 100 µM (inactive); in experiment [14], 24.3 µM (inactive); in experiment [15] it was > 100 µM (inactive); in [16], 19.7 µM (inactive); in experiment [17], 70 µM (inactive); in experiment [18] it was 40.1 µM (inactive).
As for `Cc1c(-c2ccc(O)cc2)n(CCCCCCNCCOC(=O)NCCCc2ccc(N(CCCl)CCCl)cc2)c2ccc(O)cc12`, the GI50 was 14.9 µM (inactive) in experiment [1]; 3.05 µM (inactive) in experiment [2]; 1.44 µM (inactive) in [3]; 2.54 µM (inactive) in [4]; 2.25 µM (inactive) in [5]; 1.59 µM (inactive) in [6]. Moreover, the GI50 was 1.83 µM (inactive) in experiment [7]; 1.69 µM (inactive) in [8]; 1.17 µM (inactive) in [9]; 2.16 µM (inactive) in experiment [10]; 1.9 µM (inactive) in experiment [11]; 1.38 µM (inactive) in experiment [12]. In addition, the GI50 in [13] is 2.21 µM (inactive); in [14] it was 1.96 µM (inactive); in [15], 10.2 µM (inactive); in [16], 0.0552 µM (active); in experiment [17] it was 1.89 µM (inactive); in experiment [18], 1.79 µM (inactive).
